Laboratory results taken from patent US20250361268A1, “NOVEL ANTI-INFLAMMATORY PEPTIDE AND USE THEREOF” (NOVACELL TECHNOLOGY INC., priority 2022, published 2025).
pEC50: −log10 of the molar value. Peptide text beside a SMILES is read from it.

Key:
RAW264.7 cell line = assay: Cytokine inhibition ability: LPS-induced cytokine gene expression in RAW264.7 macrophages; assay type: cell-based, mouse; conditions: grade of reduction rate of gene expression, peptide 100 nM, LPS 200 ng/mL, 6 hours
Description: The present inventors observed the cytokine inhibition ability of the immunomodulatory peptide candidates prepared according to one example of the present invention. Specifically, to confirm whether the peptides reduce inflammatory responses in cells, changes in cytokine gene expression in cells upon inflammation was measured.
The present inventors used a RAW264.7 cell line, that is, mouse macrophages, and used lipopolysaccharide (LPS; Sigma-Aldrich, #L2630), which is the main component of a gram-negative bacterial cell wall, as a material causing an inflammatory response. A peptide that had been dissolved in water at 100 μM was prepared.
In the present experiment, the cells were cultured in a DMEM (Lonza, #BE12-604F) containing 10% FBS and 1% penicillin-streptomycin under conditions of 37° C. and 5% CO2.
The cells were plated in a 24-well plate (Costar, #3603) at a density of 2.5×10^5 cells/well. After 24 hours, the prepared cells were treated with the peptide at 100 nM. After incubation at 37° C. for 30 minutes, to induce inflammation, 200 ng/mL of LPS was treated. After incubation at 37° C. for 6 hours, the cells in a medium-free state were treated with TRIzol™ (Invitrogen, #15596018) to lyse the cells. Through the given experimental method, RNA was obtained, cDNA was produced using a reverse transcriptase (Promega, #M1705). Afterward, a cytokine expression level was measured using SYBR Green (Enzynomics, RT530) and mouse primers of each inflammatory cytokine gene (TNFα, IL-6, and IL-1β).

FPR1 = molecular target: T1, FPR1 (Homo sapiens, UniProt P21462); assay: Change in calcium activity by peptide, FPR1 activation effect; assay type: cell-based; conditions: calcium activity (Fura-2), graded per Table 3, read-out: EC50 for [Ca^2+] FPR1
T1 sequence (P21462 1-350): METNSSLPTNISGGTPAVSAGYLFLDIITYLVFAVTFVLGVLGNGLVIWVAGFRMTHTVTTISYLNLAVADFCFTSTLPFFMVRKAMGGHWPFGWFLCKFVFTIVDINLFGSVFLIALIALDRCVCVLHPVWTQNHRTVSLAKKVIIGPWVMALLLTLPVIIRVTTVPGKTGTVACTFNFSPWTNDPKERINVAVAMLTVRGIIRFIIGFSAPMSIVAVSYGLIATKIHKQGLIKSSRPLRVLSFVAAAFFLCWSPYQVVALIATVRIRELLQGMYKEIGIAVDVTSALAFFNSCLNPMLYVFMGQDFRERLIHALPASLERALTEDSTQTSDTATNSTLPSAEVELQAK
Outline: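 Calcium flux induced by peptide addition was monitored on a FlexStation 3 plate reader. Before this, cells seeded a day earlier (3×10^5/well) took up the Fura-2 dye for 1 h at 37 °C plus 30 min dark at room temperature.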

FPR2 = molecular target: T2, FPR2 (Homo sapiens, UniProt P25090); assay: Change in calcium activity by peptide (Fura-2) in RBL cells overexpressing FPR2; assay type: cell-based; conditions: calcium activity (Fura-2), graded per Table 3, read-out: EC50 for [Ca^2+] FPR2
T2 construct: expressed in transfected cells; host or cells: RBL cells (RBL-FPR2)
T2 sequence (P25090 1-351): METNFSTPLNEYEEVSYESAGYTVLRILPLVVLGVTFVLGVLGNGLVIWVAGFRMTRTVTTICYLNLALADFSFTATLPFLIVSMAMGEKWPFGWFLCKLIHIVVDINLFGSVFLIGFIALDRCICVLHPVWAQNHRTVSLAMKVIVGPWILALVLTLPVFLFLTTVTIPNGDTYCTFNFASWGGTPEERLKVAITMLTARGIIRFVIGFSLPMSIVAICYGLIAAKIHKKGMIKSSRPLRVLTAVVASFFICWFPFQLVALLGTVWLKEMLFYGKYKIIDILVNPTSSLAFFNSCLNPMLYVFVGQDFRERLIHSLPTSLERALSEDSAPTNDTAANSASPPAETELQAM
Outline: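 Peptide-induced intracellular calcium change measured by Fura-2 fluorescence on a plate reader. Cells: RBL line overexpressing FPR2, dye-loaded 1 h at 37 °C then 30 min at RT in dark; peptides from 0.5 mM water/50% DMSO stocks, diluted in HBSS with 20 mM HEPES.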

Row | SMILES | Cytokine inhibition ability IL-1β (RAW264.7 cell line) | Cytokine inhibition ability IL-6 (RAW264.7 cell line) | Cytokine inhibition ability TNFα (RAW264.7 cell line) | pEC50 (FPR1) | pEC50 (FPR2)
1 | CCCCCCCC(=O)N[C@@H](CCSC)C(=O)N[C@@H](CCCCN)C(=O)N[C@@H](Cc1ccc(O)cc1)C(=O)N[C@@H](CCCCN)C(=O)N1CCC[C@H]1C(=O)N[C@H](CCSC)C(N)=O [Peptide 73] (HELM PEPTIDE1{[CCCCCCCC(=O)[*:2]].M.K.Y.K.P.[dM].[am]}$$$$V2.0) | B (61%-80%) | D (21%-40%) | B (61%-80%) | < 5.00 | 7.00 to 7.96
2 | CSCC[C@H](NC(=O)[C@@H](N)CCCNC(=N)N)C(=O)N[C@@H](CCCNC(=N)N)C(=O)N[C@@H](Cc1ccc(O)cc1)C(=O)N[C@@H](Cc1c[nH]c2ccccc12)C(=O)N[C@@H](Cc1ccc(O)cc1)C(=O)N[C@H](CCSC)C(N)=O [Peptide 81] (HELM PEPTIDE1{R.M.R.Y.W.Y.[dM].[am]}$$$$V2.0) | A (81%-100%) | C (41%-60%) | A (81%-100%) | < 5.00 | > 8.00
3 | CSCC[C@H](NC(=O)[C@H](CCCNC(=N)N)NC(C)=O)C(=O)N[C@@H](CCCNC(=N)N)C(=O)N[C@@H](Cc1ccc(O)cc1)C(=O)N[C@@H](Cc1c[nH]c2ccccc12)C(=O)N[C@@H](Cc1ccc(O)cc1)C(=O)N[C@H](CCSC)C(N)=O [Peptide 82] (HELM PEPTIDE1{[ac].R.M.R.Y.W.Y.[dM].[am]}$$$$V2.0) | B (61%-80%) | D (21%-40%) | A (81%-100%) | < 5.00 | > 8.00
4 | CCCCCCCC(=O)N[C@@H](CCCNC(=N)N)C(=O)N[C@@H](CCSC)C(=O)N[C@@H](CCCNC(=N)N)C(=O)N[C@@H](Cc1ccc(O)cc1)C(=O)N[C@@H](Cc1c[nH]c2ccccc12)C(=O)N[C@@H](Cc1ccc(O)cc1)C(=O)N[C@H](CCSC)C(N)=O [Peptide 84] (HELM PEPTIDE1{[CCCCCCCC(=O)[*:2]].R.M.R.Y.W.Y.[dM].[am]}$$$$V2.0) | B (61%-80%) | E (0%-20%) | A (81%-100%) | < 5.00 | 7.00 to 7.96
5 | CSCC[C@H](N)C(=O)N[C@@H](CCCCN)C(=O)N[C@@H](Cc1ccc(O)cc1)C(=O)N[C@@H](Cc1c[nH]c2ccccc12)C(=O)N1CCC[C@H]1C(=O)N[C@H](CCSC)C(N)=O [Peptide 113] (HELM PEPTIDE1{M.K.Y.W.P.[dM].[am]}$$$$V2.0) | D (21%-40%) | B (61%-80%) | D (21%-40%) | 5.00 to 6.00 | > 8.00
6 | CSCC[C@H](NC(C)=O)C(=O)N[C@@H](CCCCN)C(=O)N[C@@H](Cc1ccc(O)cc1)C(=O)N[C@@H](Cc1c[nH]c2ccccc12)C(=O)N1CCC[C@H]1C(=O)N[C@H](CCSC)C(N)=O [Peptide 114] (HELM PEPTIDE1{[ac].M.K.Y.W.P.[dM].[am]}$$$$V2.0) | B (61%-80%) | E (0%-20%) | A (81%-100%) | 5.00 to 6.00 | > 8.00
7 | CCCC(=O)N[C@@H](CCSC)C(=O)N[C@@H](CCCCN)C(=O)N[C@@H](Cc1ccc(O)cc1)C(=O)N[C@@H](Cc1c[nH]c2ccccc12)C(=O)N1CCC[C@H]1C(=O)N[C@H](CCSC)C(N)=O [Peptide 115] (HELM PEPTIDE1{[CCCC(=O)[*:2]].M.K.Y.W.P.[dM].[am]}$$$$V2.0) | B (61%-80%) | B (61%-80%) | C (41%-60%) | 5.00 to 6.00 | > 8.00
8 | CCCCCCCC(=O)N[C@@H](CCSC)C(=O)N[C@@H](CCCCN)C(=O)N[C@@H](Cc1ccc(O)cc1)C(=O)N[C@@H](Cc1c[nH]c2ccccc12)C(=O)N1CCC[C@H]1C(=O)N[C@H](CCSC)C(N)=O [Peptide 116] (HELM PEPTIDE1{[CCCCCCCC(=O)[*:2]].M.K.Y.W.P.[dM].[am]}$$$$V2.0) | B (61%-80%) | B (61%-80%) | B (61%-80%) | 5.00 to 6.00 | 7.00 to 7.96
